Measured values taken from patent publication US9493416B2, “N-methyl-4-benzylcarbamidopyridinium chloride and a process for its preparation” (Farmak International Holding GmbH, priority 2012, dated 2016).

Assay: Active ingredient release (dissolution) profile from solid gelatine capsules in pharmacopeial buffer solutions
Format: physicochemical
Conditions: for released faster than FAV00A-Io by: 370.6 mg capsules vs FAV00A-Io 500 mg capsules
Description: Results of comparative studies of active ingredient release profiles from a drug formulated as solid gelatine capsules using two salts of N-methyl-4-benzylcarbamidopyridine, namely the chloride and iodide salts labelled “FAV00A-Cl” and “FAV00A-Io” hereinafter.
In order to assess the FAV00A-Cl substance release rate from a finished medicinal product, studies of active ingredient release profiles were carried out for FAV00A-Cl 370.6 mg capsules, in 3 reference pharmacopeial buffer solutions with pH 1.2, 4.5, 6.8 and typical measurement conditions (1000 ml of 0.1M HCl; 100 rpm (basket); 1000 ml of acetate buffer solution pH 4.5; 100 rpm (basket); 1000 ml of phosphate buffer solution pH 6.8; 100 rpm (basket), respectively). Study results were compared against FAV00A-Io 500 mg capsules (with consideration of molecular weights of FAV00A-Cl and FAV00A-Io substances: the dosage of FAV00A-Cl substance 370.6 mg is equivalent to the dosage of FAV00A-Io substance 500 mg). The iodide salt FAV00A-Io used in the study was the α-crystalline form of amizon as described in applicant's co-pending patent applications WO 2011/158058 and WO 2011/157743.

For `C[n+]1ccc(C(=O)NCc2ccccc2)cc1.[Cl-]` [FAV00A-Cl, N-methyl-4-benzylcarbamidopyridinium chloride], the “released faster than FAV00A-Io by” value (0.1M HCl, 5-th minute) was 40%, the “released faster than FAV00A-Io by” value (0.1M HCl, 10-th minute) was 20% and the “Dissolution classification of the product” value (based on release in 15 min of more than 85%) was “rapidly dissolving”. For the same compound, the “released faster than FAV00A-Io by” value (buffer solution with pH 4.5, 5-th minute) was 25%, the “released faster than FAV00A-Io by” value (buffer solution with pH 4.5, 10-th minute) was 10% and the “released faster than FAV00A-Io by” value (buffer solution with pH 6.8, 5-th minute) was 25%. For the same compound, the “released faster than FAV00A-Io by” value (buffer solution with pH 6.8, 10-th minute) was 15% and the “Release of substance from finished medicinal product in 15 min” value (in 15 min, 3 reference pharmacopoeial buffer solutions (pH 1.2, 4.5, 6.8)) was “more than 85%”.
